Assay results: patent publication US20080004266A1, “Method for treating proliferative disorders associated with protooncogene products” (priority 2006, published 2008)
Where “and” joins values, the source holds several entries; their conditions need not be identical. Equal values may be shown once.

Columns and labels:
[1] = test system: EGFR (T790M and L858R mutations); assay: Degradation of EGFR in NCI-H1975 cells (Western blot); type: cell-based, human; details: 18 hours, 1.0 μM, 0.5 μM and 0.1 μM
Protocol: Non-small cell lung cancer cell line, NCI-H1975 (2×10^6 cells), which harbors both the T790M and the L858R mutations in EGFR and is resistant to erlotinib, was obtained from American Type Culture Collection and was treated with either Compound 226 (1.0 μM, 0.5 μM and 0.1 μM) or 17-AAG (1.0 μM, 0.5 μM and 0.1 μM). After 18 hours, the cells were lysed with 1× lysis buffer and a western blot was perform, and phosphorylated and total EGFR was detected with anti-EGFR antibodies.

[2] = test system: NPM-ALK; assay: Degradation of NPM-ALK in Karpas-299 cells (Western blot); type: cell-based, human; details: 18 hours
Protocol: Anaplastic large-cell lymphoma cells, Karpas-299 cells (the German resource center for biological material) (2×10^6 cells), which harbor the fusion protein NPM-ALK, were treated (0.05 μM, 0.1 μM and 0.5 μM) with either Compound 226 or 17-AAG. After 18 hours and the cells were lysed with 1× lysis buffer and a western blot was perform using an anti-ALK antibody to detect and phosphorylated NPM-ALK and total NPM-ALK.

[3] = test system: MV 4-11 cells (FLT3-ITD); assay: Cell survival in MV-4-11 cells (Cell Counting Kit-8); type: cell-based, human; details: Homo sapiens, MV4-11, 72 hours
Protocol: Human acute myelogenous leukemia (AML) cell line, MV 4-11 (ATCC #CRL-9591), was obtained from the American Type Culture Collection (ATCC; Manassas, Va., USA). Growth of this tumor cell line is dependent upon the expression of an activated form of the FLT3 tyrosine kinase receptor carrying an internal tandem duplication (ITD) mutation, which is the most common molecular defect associated with AML (K. W. Yee et al., Blood 100:2941-2949, 2002). MV 4-11 cells (20,000 cells/well) were cultured in 96-well plates and maintained at 37° C. for several hours. The cells were incubated at 37° C. for 72 hours with various concentrations of compounds of the invention, 17AAG, or DMAG. 17AAG and DMAG are Hsp90 inhibitors that are currently in clinical trials and are used here as positive controls for Hsp90 inhibition. Cell survival was measured with Cell Counting Kit-8 (Dojindo Laboratories, Cat # CK04).

[4] = test system: Karpas-299 cells (NPM-ALK); assay: Cell survival in Karpas-299 cells (Cell Counting Kit-8); type: cell-based, human; details: Homo sapiens, 72 hours
Protocol: Growth of this tumor cell line is dependent upon the expression of the NPM-ALK fusion protein. Karpas-299 cells (20,000 cells/well) were cultured in 96-well plates and maintained at 37° C. for several hours. The cells were incubated at 37° C. for 72 hours with various concentrations of compound 226 of the invention, 17AAG, and 17DMAG. 17AAG and 17DMAG are Hsp90 inhibitors that are currently in clinical trials and are used here as positive controls for Hsp90 inhibition. Cell survival was measured with Cell Counting Kit-8 (Dojindo Laboratories, Cat # CK04).

[5] = test system: human malignant melanoma tumor cell line A-375; assay: A-375 (B-raf V600E) nude mouse xenograft model; type: in vivo, human (xenograft in nude mouse); details: 50 mg/kg i.v. 3 times per week
Text: The human malignant melanoma cell line, A-375 (ATCC #CRL-1619), was obtained from the American Type Culture Collection (ATCC; Manassas, Va., USA). Growth of this tumor cell line is dependent upon the expression of an activated form of the B-RAF serine/threonine kinase carrying a V600E mutation (K. P. Hoeflich et al., Cancer Res. 66:999-1006, 2006; D. J. Panka et al., Cancer Res. 66:1611-1619, 2006). This is the most frequent genetic abnormality observed in melanoma (N. Dhomen and R. Marais, Curr. Opin. Genet. Dev. 17:31-39, 2007). The cells were cultured in growth media prepared with Dulbecco's Modified Eagle Medium (high glucose), 10% fetal bovine serum (FBS), 1% 100× Penicillin-Streptomycin, 1% 10× sodium pyruvate and 1% 10×MEM non-essential amino acids. FBS was obtained from ATCC and all other reagents were obtained from Invitrogen Corp. (Carlsbad, Calif., USA). […] The supernatant was aspirated and the cell pellet was resuspended in 10 mL of growth media and the cell number determined using a hemocytometer. […]
Tumors were then permitted to develop in vivo until the majority reached 90-160 mm^3 in tumor volume, which required 5-6 weeks following implantation. […] Tumor volumes (V) were calculated by caliper measurement of the width (W), length (L) and thickness (T) of tumors using the following formula: V=0.5236×(L×W×T). […]

## CC(C)c1cc(-c2nnc(O)n2-c2ccc3c(ccn3C)c2)c(O)cc1O [Compound 226, 3-(2,4-di-hydroxy-5-isopropyl-phenyl)-4-(1-methyl-indol-5-yl)-5-hydroxy-[1,2,4] triazole]
[1]
  degradation of phosphorylated and total EGFR: induced degradation phosphorylated and total EGFR more potently than 17AAG
[2]; 0.05 μM and 0.1 μM
  degradation of phosphorylated and total NPM-ALK: partial degradation
[2]; 0.5 μM
  degradation of phosphorylated NPM-ALK: total degradation
[3]
  IC50: < 4 nM
[4]
  IC50: 10 nM
[5]; day 60
  average bodyweight gain relative to the start of the study: 2.7% (+/−1.1 SEM) and 2.7% (+/1.1 SEM)
[5]; nude mice, 8 doses, day 63
  % T/C value: 17%
